Values of other authors as cited in patent publication US11369575B2, “PPARα agonist compositions and methods of use” (The Board of Regents of the University of Oklahoma, priority 2019, dated 2022).

Details: free fenofibrate after IVT dosing

CC(C)OC(=O)C(C)(C)Oc1ccc(C(=O)c2ccc(Cl)cc2)cc1 [fenofibrate]
time in which active drug levels disappear: less than 1 week
